Columns and labels:
[1] = molecular target: T1, M-phase inducer phosphatase 1 (Homo sapiens, UniProt P30304); assay: Inhibition of recombinant human full length GST-tagged CDC25A expressed in Escherichia coli BL21-DE3 pLysS using 3-O-methylfluorescein phosphate as substrate after 2 hrs by fluorimetric analysis
T1 sequence (P30304 whole entry): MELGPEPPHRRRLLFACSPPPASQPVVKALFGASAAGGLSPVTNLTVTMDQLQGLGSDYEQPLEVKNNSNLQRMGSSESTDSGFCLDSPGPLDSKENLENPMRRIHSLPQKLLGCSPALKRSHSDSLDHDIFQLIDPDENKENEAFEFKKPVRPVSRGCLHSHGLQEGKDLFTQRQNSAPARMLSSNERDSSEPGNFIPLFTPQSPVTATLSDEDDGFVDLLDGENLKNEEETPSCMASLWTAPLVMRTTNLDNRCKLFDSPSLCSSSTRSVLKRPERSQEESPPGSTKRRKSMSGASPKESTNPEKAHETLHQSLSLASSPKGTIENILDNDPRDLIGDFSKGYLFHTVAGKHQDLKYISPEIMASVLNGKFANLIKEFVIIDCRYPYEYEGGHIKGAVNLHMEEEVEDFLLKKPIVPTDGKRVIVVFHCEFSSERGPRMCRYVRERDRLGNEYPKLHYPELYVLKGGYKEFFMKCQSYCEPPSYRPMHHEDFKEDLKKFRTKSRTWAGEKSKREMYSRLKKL

[2] = molecular target: T2, M-phase inducer phosphatase 3 (Homo sapiens, UniProt P30307); assay: Inhibition of recombinant human full length GST-tagged CDC25C expressed in Escherichia coli BL21-DE3 pLysS using 3-O-methylfluorescein phosphate as substrate after 2 hrs by fluorimetric analysis
T2 sequence (P30307 whole entry): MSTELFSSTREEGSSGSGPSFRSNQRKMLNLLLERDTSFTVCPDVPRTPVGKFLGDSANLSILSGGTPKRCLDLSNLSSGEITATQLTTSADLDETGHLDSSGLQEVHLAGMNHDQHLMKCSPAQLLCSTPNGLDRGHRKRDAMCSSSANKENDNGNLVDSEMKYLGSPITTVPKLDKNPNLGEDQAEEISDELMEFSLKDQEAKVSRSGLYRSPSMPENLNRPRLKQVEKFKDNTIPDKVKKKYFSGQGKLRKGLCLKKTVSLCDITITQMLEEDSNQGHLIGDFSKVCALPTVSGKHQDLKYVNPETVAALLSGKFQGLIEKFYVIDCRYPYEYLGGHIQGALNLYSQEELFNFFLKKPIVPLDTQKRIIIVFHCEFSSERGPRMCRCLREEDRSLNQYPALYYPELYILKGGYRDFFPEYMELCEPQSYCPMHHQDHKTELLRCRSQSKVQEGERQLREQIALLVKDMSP

[3] = tested on: A549; assay: Cytotoxicity against human A549 cells assessed as reduction in cell viability after 72 hrs by MTT assay; assay type: functional, cell-based; settings: A549, 72 h
[4] = tested on: MCF7; assay: Cytotoxicity against human MCF7 cells assessed as reduction in cell viability after 72 hrs by MTT assay; assay type: functional, cell-based; settings: MCF7, 72 h
[5] = tested on: PC-3; assay: Cytotoxicity against human PC3 cells assessed as reduction in cell viability after 72 hrs by MTT assay; assay type: functional, cell-based; settings: PC-3, 72 h
[6] = Cytotoxicity against human U373n cells assessed as reduction in cell viability after 72 hrs by MTT assay; assay type: functional, cell-based
[7] = tested on: Hs 683; assay: Cytotoxicity against human Hs683 cells assessed as reduction in cell viability after 72 hrs by MTT assay; assay type: functional, cell-based; settings: Hs 683, 72 h
[8] = tested on: SK-MEL-28; assay: Cytotoxicity against human SK-MEL-28 cells assessed as reduction in cell viability after 72 hrs by MTT assay; assay type: functional, cell-based; settings: SK-MEL-28, 72 h

Structure (SMILES)	IC50 [1] [µM]	IC50 [2] [µM]	IC50 [3] [µM]	IC50 [4] [µM]	IC50 [5] [µM]	IC50 [6] [µM]	IC50 [7] [µM]	IC50 [8] [µM]
CCN(CC)c1ccc2c(c1)oc(=O)c1c3c(ccc12)C(=O)C=CC3=O	1.2	0.3	98	58	45	59	98	72
O=C1C=CC(=O)c2c1ccc1c2c(=O)oc2cc(OCc3ccccc3)ccc21	3.11	7.12	> 100	> 100	> 100	> 100	> 100	> 100
O=C1C=CC(=O)c2c1ccc1c2c(=O)[nH]c2cc(Cl)ccc21	4.04	5.5	0.13	2	4	1	1	5
O=C1C=CC(=O)c2c1ccc1c2c(=O)[nH]c2cc(F)ccc21	2.85	4.46	18	27	4	3	9	8
O=C1C=CC(=O)c2c1ccc1c2c(=O)oc2cc(O)ccc21	6.6	0.8	19	9	27	9	11	29
Cc1ccc2c(c1)oc(=O)c1c3c(ccc12)C(=O)C=CC3=O	2.9	1	> 100	82	> 100	98	> 100	> 100
O=C1C(SCCO)=C(SCCO)C(=O)c2ccccc21	–	–	1.45	0.96	3.4	1.85	2.8	2.3
O=C1C=CC(=O)c2c1ccc1c2c(=O)[nH]c2ccc(F)cc21	3.37	4.67	4	4	3	2	3	3
